The values that follow come from patent publication US8962685B2 (Vireo Systems Inc., priority 2003, dated 2015).

Bounds are passed on as bounds.

The conditions of series [1]: cited from earlier work.
The nature of series [2]: Plasma uptake and relative bioavailability after oral administration in healthy human volunteers (Example 3). Particulars: for Plasma creatine following administration: oral 5 gram dose, versus pre-dose. The text has this: The order of treatment was randomly assigned and there was a 1-week wash out period between creatine treatments.
A short description of series [3]: Stability of creatine in aqueous solution over 45 days (Example 4). The text has this:
With regard to latent product storage, standard shelf-life according to the FDA is considered to be the time it takes for 10 percent of the starting material to degrade in a given sample. […] Each data point is representative of three different samples. […] The creatine content of each sample was examined over a 45-day period.

Consider `CCOC(=O)CN(C)C(=N)N` [creatine ethyl ester], for which, in series [1], the “standard degradation time in water” value is “less than one”.
With `CN(CC(=O)O)C(=N)N.Cl` [creatine HCl, creatine hydrochloride], the increase in bioavailability entry in series [2] (in vivo, po) is recorded as “approximately 50%”. For the same compound, the “Plasma creatine following administration” value in series [2] was “significantly elevated”. For the same compound, the “shelf-life in aqueous solution (time for 10 percent to degrade)” value in series [3] (1.5 mg/mL) is on record as not below 45 days. Besides, in series [3] (buffer, 1080 h, 1.5 mg/mL), the “original creatine remaining in the aqueous solution” value was “approximately 95%”.
`CN(CC(=O)O)C(=N)N.O` [creatine monohydrate]: the “Plasma creatine following administration” value in series [2] is given as “significantly elevated”. In addition, in series [3] (room temperature (about 21° C.), 45 days, initially 1.5 mg/mL), the “original creatine remaining in the aqueous solution” value is “about 75%”.
